Reference: article PMC9663578, “A fluorogenic probe for predicting treatment response in non-small cell lung cancer with EGFR-activating mutations” (Nature Communications, 2022)
Where “and” joins values, the source holds several entries; their conditions need not be identical. Identical values can stand only once.

Assays:
A431 cells = assay: FACS assay in cultured cells; conditions: for HX103 dose-dependent signal (Supplementary Fig. 18): 20 µM = 100
Experimental: (§1) Briefly, the cultured cells were seeded on the petri dish and counted using Count star BioMed automated cell counter. Around 10^6 live-cells were collected and were pelleted (2000×g, 3 min), followed by washing with PBS (2x). Cells were then resuspended in PBS buffer containing 0.1% BSA (1 × 10^6 cells/mL). […] The cell suspension was resuspended in PBS and analyzed with a FACSVerse^TM flow cytometer (BD Biosciences, LSRFortessa). About 10,000 events per tube were analyzed and the mean fluorescence intensity was detected and analyzed.
(§2) For the FACS assay with EGFR antibody, around 10^6 live-cells were collected and washed with PBS (2x). The cells were fixed by 400 µL 4% paraformaldehyde for 15 min at room temperature, followed by permeabilization with 0.1% Triton X-100 for 10 min and blocking with 5% BSA for 30 min. […] The cells were then washed with 0.5% BSA/PBS (3x) and resuspended in 400 µL of 0.1% BSA/PBS. […] The resuspended cell suspension was then analyzed on a FACSVerseTM flow cytometer (BD Biosciences, LSRFortessa). Nonspecific fluorescence binding was omitted by Rabbit mAb IgG isotype control (#3900, CST, 1:100) and the corresponding mean fluorescence was subtracted from the signal measured with each primary antibody. About 10,000 events per tube were analyzed and the mean fluorescence intensity was detected and analyzed.
(§3) Subsequently, the treated cells were incubated for 30 min at 37 °C, followed by washing with PBS buffer three times. […] Finally, the co-stained cells were washed with 0.5% BSA/PBS for three times and resuspended in 400 µL of 0.1% BSA/PBS. The obtained cell suspension was ready for analysis. Nonspecific fluorescence binding was omitted by Rabbit mAb IgG isotype control (#3900, CST, 1:100) as described above.
(§4) Nonspecific fluorescence binding was omitted by Rabbit mAb IgG isotype control (#3900, CST, 1:100). […] After incubation for another 30 min at room temperature, the co-stained cells were washed with 0.5% BSA/PBS for three times and resuspended in 400 µL of 0.1% BSA/PBS. The obtained cell suspension was ready for analysis. Nonspecific fluorescence binding was omitted by Rabbit mAb IgG isotype control (#3900, CST, 1:100) as described above.
(§5) The cells were seeded on the petri dish and cultured at the normal condition with 10% FBS, and that was changed to serum-free condition for 24 h when the cells proliferated at ~80% confluence. […] Nonspecific fluorescence binding was omitted by Rabbit mAb IgG isotype control (#3900, CST, 1:100) as described above.

A549 cells = assay: FACS assay in cultured cells; conditions: for HX103 dose-dependent signal (Supplementary Fig. 18): 20 µM = 100
Experimental: as §1, §2, §3, §4, §5

PC-9 cells = assay: FACS assay in cultured cells; conditions: for HX103 dose-dependent signal (Supplementary Fig. 18): 20 µM = 100
Experimental: The FACS assay was performed according to the reported literatures[67],[68]. Briefly, the cultured cells were seeded on the petri dish and counted using Count star BioMed automated cell counter. Around 10^6 live-cells were collected and were pelleted (2000×g, 3 min), followed by washing with PBS (2x). Cells were then resuspended in PBS buffer containing 0.1% BSA (1 × 10^6 cells/mL). […] The cell suspension was resuspended in PBS and analyzed with a FACSVerse^TM flow cytometer (BD Biosciences, LSRFortessa). About 10,000 events per tube were analyzed and the mean fluorescence intensity was detected and analyzed.
as §2, §3, §4, §5

EGFR T790M = biological target: T1, EGFR T790M (Homo sapiens, UniProt P00533, T790M); assay: Fluorescence turn-on response / titration of HX103 with recombinant EGFR; format: binding; conditions: Fig. 2c
T1 construct: EGFR T790M (amino acids 668–1210, #PR8052A); purchased Thermo Fisher PR8052A
Experimental: (d) Fluorescence spectra change of HX103 (5 µ M) with increasing concentration of EGFR L858R
(e) Fluorescence spectra change of HX103 (5 µ M ) with
increasing concentration of EGFR 19del (0 to 6 µM) in PBS buffer. (f) Titration curve of HX103
(5 µM) with increasing concentration of EGFRs (0 to 6 µM). The apparent binding affinity (Kd)
The fluorescence titration curve was fitted on one -
site specific binding model. I and I0 represent the intensities of HX103 at 570 nm in the presence
and absence of protein. Data represent average val ues ± SD, n = 3 independent experiments per
dissolved in dimethyl sulfoxide (DMSO) to obtain stock solutions (10 mM). The prepared stock
solution was diluted in sodium phosphate buffer (PBS, 1 M, pH=7.4) to obtain the desired final
concentration solution, containing 0.1% (v/v) DMSO as a cosolvent.
and emission fluorescence spectra of the solution before/after addition o f different concentration
Data analysis：The obtained fluorescence intensity at 570 nm (Excitation wavelength was 440
nm) in each sample was normalized by using the fluorescence intensity of HX103 in the presence
of EGFR. Specifically, the fluorescence intensity of HX103 in the presence of EGFR wild-type
was set at 100% to normalized that of the remaining samples.

[1] = HX103 5 µM, 30 min, replicates n=1-3

Fluorescence intensity, T790M (EGFR T790M; wavelength 666 nm): 2748.26
Fluorescence intensity, T790M (EGFR T790M; wavelength 669 nm): 2609.98
Fluorescence intensity, T790M (EGFR T790M; wavelength 671 nm): 2444.87
Fluorescence intensity, T790M (EGFR T790M; wavelength 673 nm): 2257.89
Fluorescence intensity, T790M (EGFR T790M; wavelength 676 nm): 2067.13
Fluorescence intensity, T790M (EGFR T790M; wavelength 678 nm): 1891.35
Fluorescence intensity, T790M (EGFR T790M; wavelength 681 nm): 1749.2
Fluorescence intensity, T790M (EGFR T790M; wavelength 683 nm): 1648.24
Fluorescence intensity, T790M (EGFR T790M; wavelength 686 nm): 1577.34
Fluorescence intensity, T790M (EGFR T790M; wavelength 688 nm): 1523.55
Fluorescence intensity, T790M (EGFR T790M; wavelength 690 nm): 1473.92
Fluorescence intensity, T790M (EGFR T790M; wavelength 693 nm): 1419.2
SMILES: COc1cc2c(Nc3ccc(F)c(Cl)c3)ncnc2cc1OCCCNc1ccc(S(=O)(=O)N(C)C)c2nonc12 [HX103]
EGFR(+) HX103 (+) (%) AVE (A431 cells; A431, AVE of n=3): 62.105%
HX103 (+) (%) AVE (A431 cells; A431, AVE of n=3): 75.74%
HX103 dose-dependent signal (Supplementary Fig. 18) (A431 cells; A431, HX103 0.37 µM): 15.6053 and 17.5852 and 16.5942
HX103 dose-dependent signal (Supplementary Fig. 18) (A431 cells; A431, HX103 1.1 µM): 27.0427 and 32.7871 and 29.9049
HX103 dose-dependent signal (Supplementary Fig. 18) (A431 cells; A431, HX103 3.3 µM): 44.6928 and 49.6432 and 47.158
HX103 dose-dependent signal (Supplementary Fig. 18) (A431 cells; A431, HX103 10 µM): 77.4475 and 86.2684 and 81.868
HX103 dose-dependent signal (Supplementary Fig. 18) (A431 cells; A431, HX103 15 µM): 96.5825 and 89.3875 and 92.975
HX103 dose-dependent signal (Supplementary Fig. 18) (A431 cells; A431, HX103 20 µM): 100
HX103 signal (Supplementary Fig. 7) (A431 cells; A431, HX103 alone or with Gefitinib, replicates n=1-3): 114.212 and 76.0875 and 109.7
EGFR(+) HX103 (+) (%) (A431 cells; A431, replicates n=1-3): 55.07% and 64.605% and 66.64%
HX103(+) (%) (A431 cells; A431, replicates n=1-3): 96.31% and 66.39% and 64.52%
normalized MFI of HX103 labeling (A431 cells; [1]): 83.2618% and 101.288% and 92.2747%
EGFR(+) HX103 (+) (%) (A431 cells; HX103 5 µM, replicates n=1-3): ~ 60% and 64.605% and 66.64% and 55.07%
EGFR(+) HX103 (+) (%) AVE (A549 cells; A549, AVE of n=3): 13.21%
HX103 (+) (%) AVE (A549 cells; A549, AVE of n=3): 14.4253%
HX103 dose-dependent signal (Supplementary Fig. 18) (A549 cells; A549, HX103 0.04 µM): 1.227 and 1.64 and 1.474
HX103 dose-dependent signal (Supplementary Fig. 18) (A549 cells; A549, HX103 0.37 µM): 16.7962 and 13.0237 and 14.9399
HX103 dose-dependent signal (Supplementary Fig. 18) (A549 cells; A549, HX103 1.1 µM): 32.8472 and 24.022 and 28.4446
HX103 dose-dependent signal (Supplementary Fig. 18) (A549 cells; A549, HX103 3.3 µM): 43.6352 and 41.2034 and 42.4293
HX103 dose-dependent signal (Supplementary Fig. 18) (A549 cells; A549, HX103 10 µM): 71.5104 and 62.9379 and 67.2341
HX103 dose-dependent signal (Supplementary Fig. 18) (A549 cells; A549, HX103 15 µM): 96.2656 and 89.3616 and 85.8336
HX103 dose-dependent signal (Supplementary Fig. 18) (A549 cells; A549, HX103 20 µM): 100
HX103 signal (Supplementary Fig. 7) (A549 cells; A549, HX103 alone or with Gefitinib, replicates n=1-3): 102.046 and 98.7743 and 99.18
EGFR(+) HX103 (+) (%) (A549 cells; A549, replicates n=1-3): 7.43% and 15.21% and 16.99%
HX103(+) (%) (A549 cells; A549, replicates n=1-3): 14.626% and 17.32% and 11.33%
normalized MFI of HX103 labeling (A549 cells; [1]): 51.9313% and 58.1545% and 55.0429%
EGFR(+) HX103 (+) (%) (A549 cells; HX103 5 µM, replicates n=1-3): 15.21% and 16.99% and 7.43%
normalized MFI of HX103 labeling (PC-9 cells; [1]): 81.9742% and 91.6309% and 86.8026%
EGFR(+) HX103 (+) (%) (PC-9 cells; HX103 5 µM, replicates n=1-3): 64.51% and 67.13% and 48.39%
EGFR(+) HX103 (+) (%) AVE (PC-9 cells; PC-9, AVE of n=3): 60.01%
HX103 (+) (%) AVE (PC-9 cells; PC-9, AVE of n=3): 59.6433%
HX103 dose-dependent signal (Supplementary Fig. 18) (PC-9 cells; PC-9, HX103 0.37 µM): 18.3072 and 15.0075 and 16.6544
HX103 dose-dependent signal (Supplementary Fig. 18) (PC-9 cells; PC-9, HX103 3.3 µM): 59.5109 and 51.9447 and 55.7208
HX103 dose-dependent signal (Supplementary Fig. 18) (PC-9 cells; PC-9, HX103 10 µM): 68.1021 and 78.5978 and 73.3469
HX103 dose-dependent signal (Supplementary Fig. 18) (PC-9 cells; PC-9, HX103 15 µM): 80.0389 and 87.1198 and 83.5744
HX103 dose-dependent signal (Supplementary Fig. 18) (PC-9 cells; PC-9, HX103 20 µM): 100
HX103 signal (Supplementary Fig. 7) (PC-9 cells; PC-9, HX103 alone or with Gefitinib, replicates n=1-3): 103.242 and 99.7186 and 97.0394
EGFR(+) HX103 (+) (%) (PC-9 cells; PC-9, replicates n=1-3): 48.39% and 64.51% and 67.13%
HX103(+) (%) (PC-9 cells; PC-9, replicates n=1-3): 59.69% and 66.68% and 52.56%
